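Values below derive from 48-hour exposures of cells grown in 96-well plates, with endpoints linearly interpolated between the two concentrations bracketing the appropriate inhibition level. The concentration for full growth arrest is given as TGI.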
Assays:
Assay in all cases: NCI anticancer screen, dose series, 48 h
HOP-18 NSCLC = tested on: HOP-18 NSCLC
TK-10 renal = tested on: TK-10 renal
SK-MEL-5 melanoma = tested on: SK-MEL-5 melanoma
SNB-19 CNS = tested on: SNB-19 CNS
SW-620 colon = tested on: SW-620 colon
CAKI-1 renal = tested on: CAKI-1 renal
SNB-75 CNS = tested on: SNB-75 CNS
COLO 205 colon = tested on: COLO 205 colon
DMS 114 small cell lung = tested on: DMS 114 small cell lung
A498 renal = tested on: A498 renal
SF-539 CNS = tested on: SF-539 CNS
ACHN renal = tested on: ACHN renal
K-562 leukemia = tested on: K-562 leukemia
UACC-257 melanoma = tested on: UACC-257 melanoma
HOP-62 NSCLC = tested on: HOP-62 NSCLC
NCI-H460 lung = tested on: NCI-H460 lung
A549 NSCLC = tested on: A549 NSCLC
U251 CNS = tested on: U251 CNS
SF-268 CNS = tested on: SF-268 CNS
KM12 colon = tested on: KM12 colon
SN12C renal = tested on: SN12C renal
HCT-15 colon = tested on: HCT-15 colon
M19-MEL melanoma = tested on: M19-MEL melanoma
HL-60(TB) leukemia = tested on: HL-60(TB) leukemia
MOLT-4 leukemia = tested on: MOLT-4 leukemia
OVCAR-3 ovarian = tested on: OVCAR-3 ovarian
HCT-116 colon = tested on: HCT-116 colon
HCC-2998 colon = tested on: HCC-2998 colon
DLD-1 colon = tested on: DLD-1 colon
LXFL 529 NSCLC = tested on: LXFL 529 NSCLC
RPMI-8226 leukemia = tested on: RPMI-8226 leukemia
UACC-62 melanoma = tested on: UACC-62 melanoma
786-0 renal = tested on: 786-0 renal
DMS 273 small cell lung = tested on: DMS 273 small cell lung
CCRF-CEM leukemia = tested on: CCRF-CEM leukemia
HOP-92 NSCLC = tested on: HOP-92 NSCLC
SF-295 CNS = tested on: SF-295 CNS
NCI-H23 lung = tested on: NCI-H23 lung
SK-MEL-28 melanoma = tested on: SK-MEL-28 melanoma
MALME-3M melanoma = tested on: MALME-3M melanoma
UO-31 renal = tested on: UO-31 renal
IGROV1 ovarian = tested on: IGROV1 ovarian
NCI-H226 lung = tested on: NCI-H226 lung
KM20L2 colon = tested on: KM20L2 colon
SNB-78 CNS = tested on: SNB-78 CNS
OVCAR-8 ovarian = tested on: OVCAR-8 ovarian
EKVX NSCLC = tested on: EKVX NSCLC
M14 melanoma = tested on: M14 melanoma
RXF-631 renal = tested on: RXF-631 renal
SK-OV-3 ovarian = tested on: SK-OV-3 ovarian
OVCAR-5 ovarian = tested on: OVCAR-5 ovarian
OVCAR-4 ovarian = tested on: OVCAR-4 ovarian
HT29 colon = tested on: HT29 colon
NCI-H522 lung = tested on: NCI-H522 lung
RXF 393 renal = tested on: RXF 393 renal
LOX IMVI melanoma = tested on: LOX IMVI melanoma
SK-MEL-2 melanoma = tested on: SK-MEL-2 melanoma

`CCOC(=O)/C(C#N)=C(O)/C(=C\c1ccc(Br)cc1)NC(=O)c1ccccc1` gave a TGI (HOP-18 NSCLC) of over 100 µM, a TGI (TK-10 renal) of over 100 µM and a TGI (SK-MEL-5 melanoma) of over 100 µM. It also gave a TGI (SNB-19 CNS) of over 100 µM, a TGI (SW-620 colon) of 51.7 µM and a TGI (CAKI-1 renal) of over 100 µM. For the same compound, the TGI (SNB-75 CNS) was over 100 µM, the TGI (COLO 205 colon) was over 100 µM and the TGI (DMS 114 small cell lung) was over 100 µM. The TGI (A498 renal) was over 100 µM, the TGI (SF-539 CNS) was over 100 µM and the TGI (ACHN renal) was over 100 µM. The TGI (K-562 leukemia) was over 100 µM, the TGI (UACC-257 melanoma) was over 100 µM and the TGI (HOP-62 NSCLC) was over 100 µM. It also gave a TGI (NCI-H460 lung) of over 100 µM, a TGI (A549 NSCLC) of over 100 µM and a TGI (U251 CNS) of over 100 µM. The TGI (SF-268 CNS) was over 100 µM, the TGI (KM12 colon) was over 100 µM and the TGI (SN12C renal) was over 100 µM. For the same compound, the TGI (HCT-15 colon) was over 100 µM, the TGI (M19-MEL melanoma) was over 100 µM and the TGI (HL-60(TB) leukemia) was over 100 µM. For the same compound, the TGI (MOLT-4 leukemia) was over 100 µM, the TGI (OVCAR-3 ovarian) was over 100 µM and the TGI (HCT-116 colon) was 34.5 µM. For the same compound, the TGI (HCC-2998 colon) was over 100 µM, the TGI (DLD-1 colon) was over 100 µM and the TGI (LXFL 529 NSCLC) was over 100 µM. For the same compound, the TGI (RPMI-8226 leukemia) was 59.6 µM, the TGI (UACC-62 melanoma) was over 100 µM and the TGI (786-0 renal) was over 100 µM. For the same compound, the TGI (DMS 273 small cell lung) was over 100 µM, the TGI (CCRF-CEM leukemia) was over 100 µM and the TGI (HOP-92 NSCLC) was over 100 µM. For the same compound, the TGI (SF-295 CNS) was over 100 µM, the TGI (NCI-H23 lung) was over 100 µM and the TGI (SK-MEL-28 melanoma) was over 100 µM. For the same compound, the TGI (MALME-3M melanoma) was over 100 µM, the TGI (UO-31 renal) was over 100 µM and the TGI (IGROV1 ovarian) was over 100 µM. The TGI (NCI-H226 lung) was over 100 µM, the TGI (KM20L2 colon) was over 100 µM and the TGI (SNB-78 CNS) was over 100 µM. For the same compound, the TGI (OVCAR-8 ovarian) was over 100 µM, the TGI (EKVX NSCLC) was over 100 µM and the TGI (M14 melanoma) was over 100 µM. It also gave a TGI (RXF-631 renal) of over 100 µM, a TGI (SK-OV-3 ovarian) of over 100 µM and a TGI (OVCAR-5 ovarian) of over 100 µM. The TGI (OVCAR-4 ovarian) was over 100 µM and the TGI (HT29 colon) was over 100 µM.
In the case of `N#CC(C#N)c1ccc(C(=O)N2CCC[C@H]2CO)cc1`, the TGI (HOP-18 NSCLC) is reported as over 100 µM, the TGI (TK-10 renal) is reported as over 100 µM and the TGI (SK-MEL-5 melanoma) is reported as over 100 µM. It also gave a TGI (SNB-19 CNS) of over 100 µM, a TGI (SW-620 colon) of over 100 µM and a TGI (NCI-H522 lung) of over 100 µM. The TGI (CAKI-1 renal) was over 100 µM, the TGI (SNB-75 CNS) was over 100 µM and the TGI (COLO 205 colon) was over 100 µM. It also gave a TGI (DMS 114 small cell lung) of over 100 µM, a TGI (SF-539 CNS) of over 100 µM and a TGI (ACHN renal) of over 100 µM. For the same compound, the TGI (K-562 leukemia) was over 100 µM, the TGI (UACC-257 melanoma) was over 100 µM and the TGI (HOP-62 NSCLC) was over 100 µM. The TGI (NCI-H460 lung) was over 100 µM, the TGI (A549 NSCLC) was over 100 µM and the TGI (RXF 393 renal) was over 100 µM. It also gave a TGI (U251 CNS) of over 100 µM, a TGI (SF-268 CNS) of over 100 µM and a TGI (KM12 colon) of over 100 µM. It also gave a TGI (LOX IMVI melanoma) of over 100 µM, a TGI (SN12C renal) of over 100 µM and a TGI (HCT-15 colon) of over 100 µM. It also gave a TGI (M19-MEL melanoma) of over 100 µM, a TGI (HL-60(TB) leukemia) of over 100 µM and a TGI (MOLT-4 leukemia) of over 100 µM. The TGI (OVCAR-3 ovarian) was over 100 µM, the TGI (HCC-2998 colon) was over 100 µM and the TGI (DLD-1 colon) was over 100 µM. The TGI (LXFL 529 NSCLC) was over 100 µM, the TGI (RPMI-8226 leukemia) was over 100 µM and the TGI (UACC-62 melanoma) was over 100 µM. The TGI (786-0 renal) was over 100 µM, the TGI (SK-MEL-2 melanoma) was over 100 µM and the TGI (DMS 273 small cell lung) was over 100 µM. It also gave a TGI (CCRF-CEM leukemia) of over 100 µM, a TGI (HOP-92 NSCLC) of over 100 µM and a TGI (SF-295 CNS) of over 100 µM. The TGI (NCI-H23 lung) was over 100 µM, the TGI (SK-MEL-28 melanoma) was over 100 µM and the TGI (MALME-3M melanoma) was over 100 µM. The TGI (UO-31 renal) was over 100 µM, the TGI (IGROV1 ovarian) was over 100 µM and the TGI (KM20L2 colon) was over 100 µM. For the same compound, the TGI (OVCAR-8 ovarian) was over 100 µM, the TGI (EKVX NSCLC) was over 100 µM and the TGI (M14 melanoma) was over 100 µM. It also gave a TGI (RXF-631 renal) of over 100 µM, a TGI (SK-OV-3 ovarian) of over 100 µM and a TGI (OVCAR-5 ovarian) of over 100 µM. The TGI (OVCAR-4 ovarian) was over 100 µM and the TGI (HT29 colon) was over 100 µM.
